Data as given in US10945998B2, “Inhibitors of short-chain dehydrogenase activity for treating fibrosis” (CASE WESTERN RESERVE UNIVERSITY, priority 2015, dated 2021).
One block for each compound: values may come before it.

Columns and labels:
[1] = tested on: mouse model of intestinal fibrosis; assay: DSS chronic colitis mouse model of intestinal fibrosis; format: in vivo, FVB/N mice; conditions: 5 mg/kg IP twice a day for 28 days from day 41, colons day 69, vs vehicle
Procedure: To establish a model of intestinal fibrosis due to chronic colitis, 8-week male FVB/N mice were subjected to three cycles of dextran sodium sulfate (DSS; 2% w/v) in sterile drinking water. Each cycle consisted of 7 days of DSS followed by 10 days of recovery without DSS. […] On day 69, colons were harvested from mice, longitudinally open, and embedded in agar for orientation, and fixed in formalin overnight. Slides were prepared from paraffin-embedded formalin-fixed samples according to standard procedures. The degree of fibrosis in the mouse colon in the two groups were compared by Masson's Trichrome staining. The intensity of positive trichrome staining was quantified using ImageJ software in the following manner. 10 evenly spaced images were captured at 20× from each third of the colon from each mouse. (FIGS. 7(A-D)) Significant lymphovascular compartments or extracolonic connective tissue attachments seen on slides were excluded during the image capture. RGB channels were split from the images, and the blue channel from each image was divided by the red channel. After generating an intensity histogram of all pixels in the resultant image, the area under the curve (AUC) was calculated for intensities above 1.3 (blue/red) cutoff. The sum of AUC (total trichrome intensity) was normalized by the colon length.

[2] = tested on: PGE2 production by cell lines; assay: PGE2 production by cell lines; format: cell-based
[3] = chemical stability in aqueous solutions; format: physicochemical; conditions: over broad pH range
[4] = chemical stability when incubated with hepatocyte extracts; format: in vitro ADME
[5] = chemical stability when incubated with hepatocyte cell lines; format: in vitro ADME
[6] = plasma half-life after IP injection into mice; format: in vivo; conditions: mouse, injected IP into mice
[7] = tested on: mice; assay: toxicity after IP injection into mice
[8] = tested on: mouse model of idiopathic pulmonary fibrosis; assay: bleomycin mouse model of idiopathic pulmonary fibrosis; format: in vivo, C57/BL6J mice; conditions: vs vehicle
Procedure: 8 week old female C57/BL6J mice were purchased from Jackson Labs (stock #000664). All mouse studies were approved by the institutional animal care and use committee at Case Western Reserve University.
To induce disease onset, mice were anesthetized with ketamine/xylazine and the trachea exposed by cervical […]. Bleomycin sulfate (Enzo-BML-AP302-0010) was dissolved in H2O and administered intratracheally as a single dose of 2 mg/kg in 50 μl solution per animal.
Mortality was observed daily over the duration of the study. Body weights were measured prior to instillation and twice weekly post-bleomycin instillation.
Hydroxyproline was used to measure collagen content in mouse lungs (Sigma-MAK008-1KT). Briefly, mice were sacrificed and the right lung dissected for collagen quantitation. Experiments were performed according to the manufacturer's protocol. […] The hydrolyzed samples were incubated with 4-(Dimethylamino) benzaldehyde (DMAB) for 90 min at 60° C., and the absorbance of oxidized hydroxyproline was measured at 560 nm.

[9] = target: T1, recombinant 15-PGDH (Homo sapiens, UniProt P15428); assay: inhibition of recombinant 15-PGDH; format: biochemical
T1 sequence (P15428 1-266): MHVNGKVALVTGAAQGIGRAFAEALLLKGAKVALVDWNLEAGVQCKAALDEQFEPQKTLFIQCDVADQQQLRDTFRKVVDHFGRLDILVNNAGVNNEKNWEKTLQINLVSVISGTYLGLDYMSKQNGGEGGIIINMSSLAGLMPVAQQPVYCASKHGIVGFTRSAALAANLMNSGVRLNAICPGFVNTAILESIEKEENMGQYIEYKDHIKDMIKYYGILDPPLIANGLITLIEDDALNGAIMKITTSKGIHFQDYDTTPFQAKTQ

[10] = chemical stability when incubated with mouse liver extracts; format: in vitro ADME
[11] = chemical stability when incubated with rat liver extracts; format: in vitro ADME
[12] = chemical stability when incubated with human liver extracts; format: in vitro ADME
[13] = 5.0 mg/kg IP 2× daily for 35 days after bleomycin

SMILES: CCCC[S+]([O-])c1sc2nc(-c3cccs3)cc(-c3ccccc3)c2c1N (single isomer, unassigned; (+)) [(+)SW033291]
colonic fibrosis (Masson's Trichrome staining intensity normalized by colon length) [1]: substantially reduced

SMILES: CCCC[S+]([O-])c1sc2nc(-c3cccs3)cc(-c3ccccc3)c2c1N (stereo not drawn) [formula (IX)]
PGE2 production by cell lines [2]: increase PGE2 production
chemical stability in aqueous solutions [3]: chemically stable
chemical stability with hepatocyte extracts [4]: chemically stable
chemical stability with hepatocyte cell lines [5]: chemically stable
half-life [6]: 4.22 h
toxicity ([7]; injected IP into mice at 0.3 μmole/per mouse twice daily for 21 days): no toxicity
immediate toxicity over 24 hours ([7]; injected IP into mice at 0.6 μmole/per mouse): no immediate toxicity
immediate toxicity over 24 hours ([7]; injected IP into mice at 1.2 μmole/per mouse): no immediate toxicity

SMILES: CCCC[S+]([O-])c1sc2nc(-c3cccs3)cc(-c3ccccc3)c2c1N (stereo not drawn) [SW033291, 2-(butylsulfinyl)-4-phenyl-6-(thiophen-2-yl)thieno[2,3-b]pyridin-3-amine]
survival [8, 13]: improved survival
weight change [8, 13]: enhanced maintenance of weight
collagen deposition (tissue hydroxyproline content) ([8]; lung, 5.0 mg/kg IP 2× daily after bleomycin): reduced collagen deposition

concentration at which recombinant 15-PGDH is inhibited [9]: 3 nM
chemical stability with liver extracts [10]: chemically stable
chemical stability with liver extracts [11]: chemically stable
chemical stability with liver extracts [12]: chemically stable
half-life [6]: 0.55 h
SMILES: CCCC[S+]([O-])c1sc2nc(-c3nccs3)cc(-c3cnc(C)n3C)c2c1N (stereo not drawn) [formula (X)]
concentration at which PGE2 production by cell lines is increased [2]: 20 nM
